Among the data in ChEMBL document CHEMBL3991601, “The target landscape of clinical kinase drugs” (Science, 2017) are Kd values, retold here.

Calls of active or inactive are those of the source. For most assays here, no stated cut-off is given here; in the data, actives have a measured Kd and inactives only a lower limit.

Assay [1] deals with AP2-associated protein kinase 1 (Homo sapiens, UniProt Q2M2I8).
Assay [2] concerns the target Atypical kinase COQ8A, mitochondrial (Homo sapiens, UniProt Q8NI60).
Assay [3] deals with T1, Discoidin domain-containing receptor 2 (Homo sapiens, UniProt Q16832).
T1 sequence (Q16832 whole entry): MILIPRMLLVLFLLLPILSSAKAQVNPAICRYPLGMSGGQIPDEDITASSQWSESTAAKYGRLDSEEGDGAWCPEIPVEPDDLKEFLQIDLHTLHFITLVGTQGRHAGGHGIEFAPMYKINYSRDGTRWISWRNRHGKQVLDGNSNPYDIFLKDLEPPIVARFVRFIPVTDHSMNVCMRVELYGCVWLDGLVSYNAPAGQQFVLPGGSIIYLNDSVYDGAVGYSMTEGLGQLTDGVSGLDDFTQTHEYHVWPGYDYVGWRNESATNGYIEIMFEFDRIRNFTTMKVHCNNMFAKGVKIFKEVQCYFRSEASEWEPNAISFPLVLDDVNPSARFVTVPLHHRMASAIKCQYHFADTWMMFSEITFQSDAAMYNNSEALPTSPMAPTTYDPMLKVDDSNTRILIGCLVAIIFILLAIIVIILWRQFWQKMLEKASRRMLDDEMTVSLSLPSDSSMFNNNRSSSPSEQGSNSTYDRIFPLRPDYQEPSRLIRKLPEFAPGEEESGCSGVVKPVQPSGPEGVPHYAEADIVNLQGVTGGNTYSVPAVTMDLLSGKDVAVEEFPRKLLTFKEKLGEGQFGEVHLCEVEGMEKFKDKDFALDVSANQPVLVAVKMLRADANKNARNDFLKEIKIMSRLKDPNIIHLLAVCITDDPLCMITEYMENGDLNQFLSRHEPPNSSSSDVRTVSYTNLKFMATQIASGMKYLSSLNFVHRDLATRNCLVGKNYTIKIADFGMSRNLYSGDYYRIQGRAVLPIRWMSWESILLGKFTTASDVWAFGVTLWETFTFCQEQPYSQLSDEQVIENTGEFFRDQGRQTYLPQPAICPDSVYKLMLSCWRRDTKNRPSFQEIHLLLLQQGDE

The target in assay [4] is Fibroblast growth factor receptor 1 (Homo sapiens, UniProt P11362).
The target in assay [5] is Tyrosine-protein kinase HCK (Homo sapiens, UniProt P08631).
The target of assay [6] is T2, Mitogen-activated protein kinase kinase kinase 5 (Homo sapiens, UniProt Q99683).
T2 sequence (Q99683 whole entry): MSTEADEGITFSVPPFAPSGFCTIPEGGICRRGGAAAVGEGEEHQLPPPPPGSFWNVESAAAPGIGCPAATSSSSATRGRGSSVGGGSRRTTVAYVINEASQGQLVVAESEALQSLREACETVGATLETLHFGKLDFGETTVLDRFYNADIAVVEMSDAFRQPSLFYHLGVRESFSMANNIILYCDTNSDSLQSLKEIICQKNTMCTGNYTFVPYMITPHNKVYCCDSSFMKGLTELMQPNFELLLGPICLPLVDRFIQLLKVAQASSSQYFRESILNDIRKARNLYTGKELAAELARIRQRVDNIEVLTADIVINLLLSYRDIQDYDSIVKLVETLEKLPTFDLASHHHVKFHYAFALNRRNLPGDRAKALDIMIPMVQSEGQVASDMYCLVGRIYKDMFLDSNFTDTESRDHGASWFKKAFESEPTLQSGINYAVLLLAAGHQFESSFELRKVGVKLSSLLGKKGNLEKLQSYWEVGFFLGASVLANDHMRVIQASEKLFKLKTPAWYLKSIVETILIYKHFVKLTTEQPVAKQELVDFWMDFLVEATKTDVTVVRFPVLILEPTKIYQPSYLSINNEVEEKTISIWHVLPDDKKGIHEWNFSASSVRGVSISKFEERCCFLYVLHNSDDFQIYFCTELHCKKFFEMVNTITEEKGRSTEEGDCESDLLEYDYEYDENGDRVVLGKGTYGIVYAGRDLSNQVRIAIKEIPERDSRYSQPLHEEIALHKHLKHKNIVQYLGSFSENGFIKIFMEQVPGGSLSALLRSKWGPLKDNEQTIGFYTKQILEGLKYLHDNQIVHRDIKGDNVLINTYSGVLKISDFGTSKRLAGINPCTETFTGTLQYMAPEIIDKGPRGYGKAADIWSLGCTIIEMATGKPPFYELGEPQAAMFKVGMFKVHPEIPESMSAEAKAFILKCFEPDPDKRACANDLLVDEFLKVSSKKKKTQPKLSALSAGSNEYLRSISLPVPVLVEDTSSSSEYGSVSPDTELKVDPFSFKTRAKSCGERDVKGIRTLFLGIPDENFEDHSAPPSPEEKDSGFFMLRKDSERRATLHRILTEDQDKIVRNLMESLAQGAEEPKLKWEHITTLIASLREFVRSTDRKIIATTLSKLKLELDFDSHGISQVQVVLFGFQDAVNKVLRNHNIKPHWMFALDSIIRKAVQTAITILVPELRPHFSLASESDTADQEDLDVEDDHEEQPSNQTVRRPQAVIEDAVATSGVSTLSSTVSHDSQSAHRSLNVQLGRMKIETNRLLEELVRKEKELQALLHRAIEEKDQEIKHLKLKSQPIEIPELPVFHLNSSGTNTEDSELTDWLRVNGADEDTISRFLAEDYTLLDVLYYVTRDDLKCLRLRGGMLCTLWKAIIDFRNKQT

For assay [7], the target named is Mitogen-activated protein kinase kinase kinase kinase 4 (Homo sapiens, UniProt O95819).
For assay [8], the target named is T3, Mitogen-activated protein kinase 15 (Homo sapiens, UniProt Q8TD08).
T3 sequence (Q8TD08 whole entry): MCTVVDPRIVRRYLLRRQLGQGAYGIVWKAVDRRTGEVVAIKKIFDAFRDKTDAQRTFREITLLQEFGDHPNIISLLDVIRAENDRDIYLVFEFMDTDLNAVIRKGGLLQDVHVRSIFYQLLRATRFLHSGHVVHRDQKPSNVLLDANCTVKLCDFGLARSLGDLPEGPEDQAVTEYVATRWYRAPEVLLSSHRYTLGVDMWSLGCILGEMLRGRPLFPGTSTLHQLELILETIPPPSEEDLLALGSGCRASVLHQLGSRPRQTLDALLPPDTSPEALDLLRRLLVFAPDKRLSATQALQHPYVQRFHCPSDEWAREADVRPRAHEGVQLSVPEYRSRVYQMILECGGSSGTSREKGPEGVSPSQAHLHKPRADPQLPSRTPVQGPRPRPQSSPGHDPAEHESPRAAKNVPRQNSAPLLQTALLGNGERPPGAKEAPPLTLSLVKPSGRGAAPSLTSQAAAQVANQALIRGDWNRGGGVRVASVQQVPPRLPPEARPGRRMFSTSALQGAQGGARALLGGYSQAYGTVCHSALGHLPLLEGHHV

Tyrosine-protein kinase HCK, sequence (P08631 whole entry): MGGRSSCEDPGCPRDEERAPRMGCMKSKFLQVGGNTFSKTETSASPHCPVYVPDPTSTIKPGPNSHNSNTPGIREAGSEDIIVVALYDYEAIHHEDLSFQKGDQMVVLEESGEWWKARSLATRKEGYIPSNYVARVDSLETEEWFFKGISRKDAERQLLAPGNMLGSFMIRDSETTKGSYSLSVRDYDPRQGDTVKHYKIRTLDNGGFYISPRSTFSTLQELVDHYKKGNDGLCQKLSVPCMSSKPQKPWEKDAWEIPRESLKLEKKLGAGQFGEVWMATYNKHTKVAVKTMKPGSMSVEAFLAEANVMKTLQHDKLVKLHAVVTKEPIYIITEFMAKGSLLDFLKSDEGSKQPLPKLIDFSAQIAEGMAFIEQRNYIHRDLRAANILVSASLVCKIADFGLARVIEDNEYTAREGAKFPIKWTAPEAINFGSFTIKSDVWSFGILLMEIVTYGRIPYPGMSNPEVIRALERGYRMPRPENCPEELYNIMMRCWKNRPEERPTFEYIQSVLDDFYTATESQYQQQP
AP2-associated protein kinase 1, sequence (Q2M2I8 whole entry): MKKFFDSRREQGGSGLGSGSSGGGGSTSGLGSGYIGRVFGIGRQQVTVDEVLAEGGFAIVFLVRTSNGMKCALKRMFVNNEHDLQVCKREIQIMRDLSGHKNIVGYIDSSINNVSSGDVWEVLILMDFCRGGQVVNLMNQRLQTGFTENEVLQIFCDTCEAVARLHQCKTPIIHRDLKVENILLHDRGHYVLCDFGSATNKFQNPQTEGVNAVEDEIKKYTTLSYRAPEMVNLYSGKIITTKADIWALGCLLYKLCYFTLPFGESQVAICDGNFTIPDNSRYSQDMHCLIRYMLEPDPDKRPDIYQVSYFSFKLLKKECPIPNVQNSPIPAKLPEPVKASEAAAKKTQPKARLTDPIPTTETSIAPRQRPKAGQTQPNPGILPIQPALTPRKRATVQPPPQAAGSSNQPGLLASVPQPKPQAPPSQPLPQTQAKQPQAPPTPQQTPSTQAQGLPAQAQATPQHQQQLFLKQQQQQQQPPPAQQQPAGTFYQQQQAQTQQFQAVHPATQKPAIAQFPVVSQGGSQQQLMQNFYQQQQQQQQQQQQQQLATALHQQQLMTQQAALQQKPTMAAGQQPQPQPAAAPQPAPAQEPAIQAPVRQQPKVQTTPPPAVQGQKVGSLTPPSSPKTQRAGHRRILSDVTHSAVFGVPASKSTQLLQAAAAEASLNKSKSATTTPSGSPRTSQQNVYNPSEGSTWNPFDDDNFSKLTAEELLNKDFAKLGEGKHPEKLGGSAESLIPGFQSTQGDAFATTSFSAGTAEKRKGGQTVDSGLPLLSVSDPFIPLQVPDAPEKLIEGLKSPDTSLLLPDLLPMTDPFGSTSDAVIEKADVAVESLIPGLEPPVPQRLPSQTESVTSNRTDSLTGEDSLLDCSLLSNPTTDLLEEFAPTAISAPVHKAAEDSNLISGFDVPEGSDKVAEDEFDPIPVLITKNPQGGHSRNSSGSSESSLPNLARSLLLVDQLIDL
Fibroblast growth factor receptor 1, sequence (P11362 whole entry): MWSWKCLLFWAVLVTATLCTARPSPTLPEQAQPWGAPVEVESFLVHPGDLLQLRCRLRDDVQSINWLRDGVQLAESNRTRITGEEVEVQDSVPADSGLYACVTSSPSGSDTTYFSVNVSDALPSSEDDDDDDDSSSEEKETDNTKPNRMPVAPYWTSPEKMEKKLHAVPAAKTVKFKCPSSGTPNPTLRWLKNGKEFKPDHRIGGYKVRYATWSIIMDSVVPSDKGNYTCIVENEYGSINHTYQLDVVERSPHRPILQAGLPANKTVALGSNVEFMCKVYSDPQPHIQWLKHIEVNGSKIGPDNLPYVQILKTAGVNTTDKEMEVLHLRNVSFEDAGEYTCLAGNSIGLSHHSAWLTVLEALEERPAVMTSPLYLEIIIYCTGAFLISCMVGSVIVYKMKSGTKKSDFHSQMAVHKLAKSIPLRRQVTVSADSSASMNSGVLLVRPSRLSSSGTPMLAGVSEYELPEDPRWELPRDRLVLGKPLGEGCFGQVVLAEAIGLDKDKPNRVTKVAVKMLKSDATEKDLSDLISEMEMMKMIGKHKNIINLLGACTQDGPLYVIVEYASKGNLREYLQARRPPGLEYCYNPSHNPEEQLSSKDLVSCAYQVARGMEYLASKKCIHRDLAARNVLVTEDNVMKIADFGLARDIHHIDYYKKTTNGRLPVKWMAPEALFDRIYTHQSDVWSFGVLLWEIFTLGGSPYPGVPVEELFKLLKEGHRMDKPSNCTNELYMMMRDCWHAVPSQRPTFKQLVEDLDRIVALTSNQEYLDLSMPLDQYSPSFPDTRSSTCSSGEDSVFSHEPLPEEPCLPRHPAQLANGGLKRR
Mitogen-activated protein kinase kinase kinase kinase 4, sequence (O95819 whole entry): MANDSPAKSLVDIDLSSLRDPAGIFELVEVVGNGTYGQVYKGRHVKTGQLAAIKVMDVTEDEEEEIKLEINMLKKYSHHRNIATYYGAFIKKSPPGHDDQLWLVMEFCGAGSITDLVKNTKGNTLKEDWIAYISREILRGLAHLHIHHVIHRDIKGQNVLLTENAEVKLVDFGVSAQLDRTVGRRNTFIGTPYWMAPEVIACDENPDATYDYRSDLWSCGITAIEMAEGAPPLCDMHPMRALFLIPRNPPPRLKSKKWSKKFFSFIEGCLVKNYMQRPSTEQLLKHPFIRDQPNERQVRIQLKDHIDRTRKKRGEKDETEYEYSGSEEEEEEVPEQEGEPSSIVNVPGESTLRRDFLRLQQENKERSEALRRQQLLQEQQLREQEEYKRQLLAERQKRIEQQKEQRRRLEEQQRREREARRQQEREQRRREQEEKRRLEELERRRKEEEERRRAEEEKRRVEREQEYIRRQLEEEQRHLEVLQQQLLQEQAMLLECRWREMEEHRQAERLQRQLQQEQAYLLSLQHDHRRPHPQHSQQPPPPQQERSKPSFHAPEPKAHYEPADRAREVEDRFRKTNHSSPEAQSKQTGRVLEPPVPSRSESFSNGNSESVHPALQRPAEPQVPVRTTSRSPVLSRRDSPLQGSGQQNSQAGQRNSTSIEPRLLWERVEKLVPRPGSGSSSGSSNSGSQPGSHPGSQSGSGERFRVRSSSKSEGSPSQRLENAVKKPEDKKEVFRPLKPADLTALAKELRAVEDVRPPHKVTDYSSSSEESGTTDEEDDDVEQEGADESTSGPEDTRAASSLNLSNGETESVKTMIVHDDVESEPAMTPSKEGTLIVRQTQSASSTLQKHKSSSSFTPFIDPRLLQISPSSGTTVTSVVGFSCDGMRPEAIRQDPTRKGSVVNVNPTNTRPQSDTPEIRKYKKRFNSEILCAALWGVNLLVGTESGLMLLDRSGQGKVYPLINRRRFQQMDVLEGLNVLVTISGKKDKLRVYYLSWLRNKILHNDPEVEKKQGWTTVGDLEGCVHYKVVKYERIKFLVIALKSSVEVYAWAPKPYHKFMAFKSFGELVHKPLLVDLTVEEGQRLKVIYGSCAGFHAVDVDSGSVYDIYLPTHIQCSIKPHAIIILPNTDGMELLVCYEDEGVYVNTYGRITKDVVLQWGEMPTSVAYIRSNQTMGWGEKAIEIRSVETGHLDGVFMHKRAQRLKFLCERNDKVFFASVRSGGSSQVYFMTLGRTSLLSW
Atypical kinase COQ8A, mitochondrial, sequence (Q8NI60 whole entry, the tested form may be a part): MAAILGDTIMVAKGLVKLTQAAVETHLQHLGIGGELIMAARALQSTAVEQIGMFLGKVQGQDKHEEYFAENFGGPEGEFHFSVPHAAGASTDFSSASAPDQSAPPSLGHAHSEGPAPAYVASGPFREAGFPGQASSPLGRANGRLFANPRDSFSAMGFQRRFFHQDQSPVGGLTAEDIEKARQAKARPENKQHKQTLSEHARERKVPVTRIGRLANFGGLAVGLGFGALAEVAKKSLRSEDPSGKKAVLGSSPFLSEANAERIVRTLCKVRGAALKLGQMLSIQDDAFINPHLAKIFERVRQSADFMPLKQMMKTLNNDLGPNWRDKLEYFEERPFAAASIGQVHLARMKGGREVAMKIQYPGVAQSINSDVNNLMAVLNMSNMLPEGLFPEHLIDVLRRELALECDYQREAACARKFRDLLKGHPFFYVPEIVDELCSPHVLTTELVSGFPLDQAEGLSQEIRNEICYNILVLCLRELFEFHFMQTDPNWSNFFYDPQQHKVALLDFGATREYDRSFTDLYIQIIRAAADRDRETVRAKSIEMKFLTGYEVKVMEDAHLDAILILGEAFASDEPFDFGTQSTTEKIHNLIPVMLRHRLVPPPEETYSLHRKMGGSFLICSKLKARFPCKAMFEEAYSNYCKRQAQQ

Take `COc1ccc(-c2ccc3c(N4CCOC[C@@H]4C)nc(N4CCOC[C@@H]4C)nc3n2)cc1CO` [AZD-8055]: the Kd in assay [1], in assay [2], in assay [3], in assay [4], in assay [5] and in assay [6] was > 30 µM (inactive) throughout. Also, the Kd in assay [7] and in assay [8] was > 30 µM (inactive) each time.
On to `O=C(O)[C@]1(Cc2cccc(Nc3nccs3)n2)CC[C@@H](Oc2cccc(Cl)c2F)CC1` [MK-5108], for which the Kd in assay [1], in assay [2], in assay [3], in assay [4], in assay [5] and in assay [6] was > 30 µM (inactive) each time. The Kd in assay [7] and in assay [8] was > 30 µM (inactive) in each case.
Take `O=C1NC(=O)/C(=C/c2ccc3nccc(-c4ccncc4)c3c2)S1` [GSK-1059615]: the Kd was 0.035 µM (active) in assay [1]; > 30 µM (inactive) in assay [2]; > 30 µM (inactive) in assay [3]; > 30 µM (inactive) in assay [4]; > 30 µM (inactive) in assay [5]; > 30 µM (inactive) in assay [6]. The Kd in assay [7] and in assay [8] was > 30 µM (inactive) in each case.
Consider `C[C@@H](Nc1cc(F)cc(F)c1)c1cc(C(=O)N(C)C)cc2c(=O)cc(N3CCOCC3)oc12` [AZD-8186], for which the Kd in assay [1], in assay [2], in assay [3], in assay [4], in assay [5] and in assay [6] was > 30 µM (inactive) throughout. In addition, the Kd in assay [7] and in assay [8] was > 30 µM (inactive) in each case.
As for `Cc1c(F)cc(C(=O)NC2CC2)cc1-c1ccc(C(=O)NCC(C)(C)C)cn1` [LOSMAPIMOD], the Kd in assay [1], in assay [2], in assay [3], in assay [4], in assay [5] and in assay [6] was > 30 µM (inactive) each time. Also, the Kd in assay [7] and in assay [8] was > 30 µM (inactive) each time.
For `C=CC(=O)N1CCC(Oc2cc3c(Nc4ccc(Cl)c(Cl)c4F)ncnc3cc2OC)CC1` [POZIOTINIB], the Kd in assay [1], in assay [2], in assay [3], in assay [4], in assay [5] and in assay [6] was > 30 µM (inactive) each time. Besides, the Kd in assay [7] and in assay [8] was > 30 µM (inactive) each time.
Turning to `Cc1cc2c(F)c(Oc3ncnn4cc(OC[C@@H](C)OC(=O)[C@H](C)N)c(C)c34)ccc2[nH]1` [BRIVANIB ALANINATE], the Kd is > 30 µM (inactive) in assay [1]; > 30 µM (inactive) in assay [2]; > 30 µM (inactive) in assay [3]; 3.9 µM (active) in assay [4]; > 30 µM (inactive) in assay [5]; > 30 µM (inactive) in assay [6]. For the same molecule, the Kd was 46.2 µM (active) in assay [7] and > 30 µM (inactive) in assay [8].
As to `C1=C/COCc2cc(ccc2OCCN2CCCC2)Nc2nccc(n2)-c2cccc(c2)COC/1` [PACRITINIB], the Kd in assay [1] was 0.042 µM (active); in assay [2] it was > 30 µM (inactive); in assay [3], > 30 µM (inactive); in assay [4], > 30 µM (inactive); in assay [5], > 30 µM (inactive); in assay [6], > 30 µM (inactive). For the same molecule, the figures for the Kd in assay [7] and in assay [8] were 0.293 µM (active) and > 30 µM (inactive), respectively.
Regarding `C[C@@H]1CN(Cc2ccc(F)cc2)[C@@H](C)CN1C(=O)c1cc2c(C(=O)C(=O)N(C)C)cn(C)c2cc1Cl` [TALMAPIMOD], the Kd in assay [1], in assay [2], in assay [3], in assay [4], in assay [5] and in assay [6] was > 30 µM (inactive) each time. Further, the Kd in assay [7] and in assay [8] was > 30 µM (inactive) in each case.
